In ChEMBL document CHEMBL1201862, “PubChem BioAssay data set” (2004):
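Results reflect a 48-hour exposure of cells in 96-well plates to compound at five concentrations. GI50 marks 50% less growth.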 Activity calls are given as the source filed them. No stated cut-off is given here; in the data, active = GI50 up to about 1.1 µM and inactive = higher.

What was measured:
Assay in all cases: DTP human tumour cell line panel, 48 h
CCRF-CEM = test system: CCRF-CEM
SK-MEL-5 = test system: SK-MEL-5
UO-31 = test system: UO-31
MOLT-4 = test system: MOLT-4
LOX IMVI = test system: LOX IMVI
SNB-19 = test system: SNB-19
A549 = test system: A549
NCI-H460 = test system: NCI-H460
OVCAR-5 = test system: OVCAR-5
HT-29 = test system: HT-29
TK-10 = test system: TK-10
HCC 2998 = test system: HCC 2998
Malme-3M = test system: Malme-3M
SK-MEL-28 = test system: SK-MEL-28
HL-60 = test system: HL-60
NCI-H226 = test system: NCI-H226

Measured: GI50

CCN(CC)CC(C)(C)C(=O)/C=C/c1ccc(C)cc1
inactive: CCRF-CEM 2.82 µM | SK-MEL-5 14.2 µM | UO-31 10.5 µM | MOLT-4 3.39 µM | LOX IMVI 11 µM | SNB-19 11.8 µM | A549 12.9 µM | NCI-H460 6.08 µM | OVCAR-5 14.5 µM | HT-29 3.86 µM | TK-10 14.5 µM | HCC 2998 10 µM | Malme-3M 9.46 µM | SK-MEL-28 13.5 µM

Cc1cc(Cl)ccc1/N=C1/NC(=O)C(CC(=O)Nc2cccc(C)c2C)S1 (centres undefined)
inactive: CCRF-CEM 22.2 µM | SK-MEL-5 20.4 µM | UO-31 21.6 µM | MOLT-4 24.5 µM | LOX IMVI 22.3 µM | SNB-19 26.8 µM | A549 32 µM | NCI-H460 31.3 µM | OVCAR-5 31.7 µM | HT-29 37.8 µM | TK-10 39.3 µM | HCC 2998 26.2 µM | Malme-3M 24.2 µM | SK-MEL-28 30.2 µM

CN1C(=O)NC2(O)c3ccccc3C(=O)C12O (centres undefined)
inactive: CCRF-CEM > 100 µM | UO-31 > 100 µM | MOLT-4 > 100 µM | LOX IMVI > 100 µM | SNB-19 > 100 µM | A549 > 100 µM | NCI-H460 > 100 µM | OVCAR-5 > 100 µM | HL-60 > 100 µM | HT-29 > 100 µM | TK-10 > 100 µM | Malme-3M > 100 µM | SK-MEL-28 > 100 µM

COC1=CC(=O)c2ccccc2C1(CCC=C(C)C)C1=NC(C)(C)CO1 (centres undefined)
inactive: CCRF-CEM 28.6 µM | SK-MEL-5 > 100 µM | UO-31 28.6 µM | MOLT-4 31.7 µM | SNB-19 84.9 µM | NCI-H226 > 100 µM | A549 51.6 µM | NCI-H460 > 100 µM | HL-60 23.7 µM | HT-29 81.8 µM | TK-10 > 100 µM | Malme-3M 78.7 µM | SK-MEL-28 > 100 µM

CCCCC1=CSC(c2ccccc2)=C(c2ccccc2)S1
inactive: CCRF-CEM 21.6 µM | SK-MEL-5 23.9 µM | UO-31 > 100 µM | MOLT-4 8.97 µM | LOX IMVI 20.1 µM | SNB-19 43.3 µM | NCI-H226 > 100 µM | A549 64.1 µM | NCI-H460 53.1 µM | HT-29 33.6 µM | TK-10 > 100 µM | HCC 2998 37.6 µM | SK-MEL-28 63.5 µM

CC1C=CC(=O)C(n2cc(F)c(=O)[nH]c2=O)O1 (centres undefined)
inactive: CCRF-CEM 8.89 µM | SK-MEL-5 17.9 µM | UO-31 16.4 µM | MOLT-4 16.5 µM | LOX IMVI 15.8 µM | SNB-19 22.2 µM | A549 24.4 µM | NCI-H460 23.3 µM | HL-60 20.1 µM | HT-29 18.2 µM | TK-10 18.7 µM | Malme-3M 14.2 µM | SK-MEL-28 23.4 µM

Cc1ccccc1NC(=O)C(=O)C1CN(c2ccccc2)N=C1N (centres undefined)
inactive: CCRF-CEM > 100 µM | SK-MEL-5 > 10 µM | UO-31 > 100 µM | MOLT-4 > 100 µM | SNB-19 > 100 µM | NCI-H226 > 100 µM | A549 > 100 µM | NCI-H460 > 100 µM | HL-60 > 100 µM | HT-29 > 100 µM | HCC 2998 > 100 µM | Malme-3M > 100 µM | SK-MEL-28 > 100 µM

CC1Cc2c(N)nc(N3CCOCC3)nc2NC1=O (centres undefined)
inactive: CCRF-CEM > 100 µM | SK-MEL-5 > 100 µM | UO-31 > 100 µM | MOLT-4 > 100 µM | LOX IMVI > 100 µM | SNB-19 > 100 µM | NCI-H226 > 100 µM | A549 > 100 µM | NCI-H460 > 100 µM | HL-60 > 100 µM | HT-29 > 100 µM | TK-10 > 100 µM | Malme-3M > 100 µM | SK-MEL-28 > 100 µM

COc1ccc(NC(=O)CC(=O)n2nc(C)c(/N=N/c3ccccc3C(=O)O)c2C)cc1
inactive: CCRF-CEM > 100 µM | SK-MEL-5 > 100 µM | UO-31 > 100 µM | MOLT-4 > 100 µM | LOX IMVI > 100 µM | SNB-19 80.7 µM | A549 > 100 µM | NCI-H460 > 100 µM | OVCAR-5 > 100 µM | HL-60 > 100 µM | HT-29 > 100 µM | TK-10 > 100 µM | HCC 2998 > 100 µM | Malme-3M > 100 µM | SK-MEL-28 > 100 µM

C=C/C=C/NC(=O)OCc1ccccc1
inactive: CCRF-CEM > 100 µM | SK-MEL-5 > 100 µM | UO-31 > 100 µM | MOLT-4 > 100 µM | LOX IMVI > 100 µM | SNB-19 > 100 µM | A549 > 100 µM | NCI-H460 > 100 µM | OVCAR-5 > 100 µM | HL-60 > 100 µM | HT-29 > 100 µM | TK-10 > 100 µM | SK-MEL-28 > 100 µM

Cc1ccc(C2=C(c3ccccc3)C(Br)(c3ccc(C)cc3)C(c3ccccc3)=C2c2ccc(C)cc2)cc1
inactive: CCRF-CEM > 100 µM | SK-MEL-5 > 100 µM | MOLT-4 > 100 µM | LOX IMVI > 100 µM | SNB-19 > 100 µM | A549 > 100 µM | NCI-H460 > 100 µM | OVCAR-5 > 100 µM | HL-60 > 100 µM | TK-10 > 100 µM | HCC 2998 > 100 µM | Malme-3M > 100 µM | SK-MEL-28 > 100 µM

COC(=O)C1=C2CCC(=O)[C@@]2(C)C(OC(C)=O)C=CC1 (some centres undefined)
inactive: CCRF-CEM 22.9 µM | SK-MEL-5 > 100 µM | UO-31 > 100 µM | MOLT-4 35.9 µM | NCI-H226 > 100 µM | A549 > 100 µM | NCI-H460 > 100 µM | OVCAR-5 > 100 µM | HL-60 29.5 µM | HT-29 > 100 µM | TK-10 > 100 µM | HCC 2998 > 100 µM | Malme-3M > 100 µM | SK-MEL-28 > 100 µM

CC1CCCCc2nc3c(c(=O)n21)CCCC3 (centres undefined)
inactive: UO-31 > 100 µM | MOLT-4 > 100 µM | LOX IMVI > 100 µM | SNB-19 > 100 µM | NCI-H226 > 100 µM | A549 > 100 µM | NCI-H460 > 100 µM | OVCAR-5 > 100 µM | HT-29 > 100 µM | TK-10 > 100 µM | HCC 2998 > 100 µM | Malme-3M > 100 µM | SK-MEL-28 > 100 µM

CCCCc1ccc(-n2c3nc(=O)n(C)c(=O)c-3nc3ccccc32)cc1
inactive: CCRF-CEM 13.5 µM | SK-MEL-5 1.52 µM | UO-31 12.5 µM | MOLT-4 15.3 µM | SNB-19 8.24 µM | NCI-H226 11.7 µM | A549 5.61 µM | NCI-H460 4.03 µM | OVCAR-5 18.1 µM | HL-60 10.6 µM | HT-29 3.11 µM | TK-10 13.9 µM | HCC 2998 4.36 µM | Malme-3M 7.6 µM
